Two molecules from article PMC7675038, “A Single‐Stranded DNA‐Encoded Chemical Library Based on a Stereoisomeric Scaffold Enables Ligand Discovery by Modular Assembly of Building Blocks” (Advanced Science, 2020) can be followed below.

For the experiment, the target named is T1, HSA, human serum albumin (Homo sapiens, UniProt P02768).
T1 construct: gene ALB
The experiment is described as follows: fluorescence polarization, off-DNA. Format: binding. (In general: Fluorescence polarisation rises when a labelled molecule tumbles more slowly, as on binding a larger partner.)

T1 sequence (P02768 25-609): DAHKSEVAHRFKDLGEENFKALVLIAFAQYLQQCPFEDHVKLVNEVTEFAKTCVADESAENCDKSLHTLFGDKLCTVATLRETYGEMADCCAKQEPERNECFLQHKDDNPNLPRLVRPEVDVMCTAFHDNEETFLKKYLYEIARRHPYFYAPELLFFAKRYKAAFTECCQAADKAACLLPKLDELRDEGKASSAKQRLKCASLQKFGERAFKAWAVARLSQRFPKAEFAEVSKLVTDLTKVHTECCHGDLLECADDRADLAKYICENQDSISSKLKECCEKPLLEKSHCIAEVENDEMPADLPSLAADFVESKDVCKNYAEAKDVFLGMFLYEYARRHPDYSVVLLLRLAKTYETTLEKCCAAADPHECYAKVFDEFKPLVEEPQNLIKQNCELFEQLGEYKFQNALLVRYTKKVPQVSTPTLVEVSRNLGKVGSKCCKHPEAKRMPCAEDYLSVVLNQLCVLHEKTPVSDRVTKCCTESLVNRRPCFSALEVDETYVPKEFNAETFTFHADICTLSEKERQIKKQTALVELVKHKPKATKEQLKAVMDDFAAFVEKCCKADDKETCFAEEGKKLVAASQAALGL

Broadly, the Kd is the concentration at which binding is half-saturated. Read a low Kd as higher affinity. The molecule `Cc1ccc(C(=O)NCC(=O)N[C@@H](CCC(=O)N[C@@H](CCC(N)=O)C(=O)O)C(=O)N2CCc3nc(-c4ccccc4)ncc3C2)cc1` [compound 17, 17] returned a Kd of 5 ± 3 µM.

With `Cc1ccc(C(=O)NCC(=O)N[C@H](CCC(=O)N[C@@H](CCC(N)=O)C(=O)O)C(=O)N2CCc3nc(-c4ccccc4)ncc3C2)cc1` [compound 16, 16], the Kd came to 11 ± 2 µM.
